# Assay results from PubChem BioAssay (NCI).
# “And” between values parts separate entries of the source, which are not always exact repeats. Identical values can stand only once.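 A five-concentration, 48-hour dose response in 96-well plates underlies each endpoint, interpolated linearly between surrounding concentrations. GI50 marks 50% less growth. TGI: concentration producing complete growth inhibition.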
# Tests used:
# Experiment in all cases: DTP human tumour cell line panel, 48 h
# [1] = tested on: EKVX NSCLC
# [2] = tested on: TK-10 renal
# [3] = tested on: SNB-19 CNS
# [4] = tested on: SF-539 CNS
# [5] = tested on: SK-MEL-28 melanoma
# [6] = tested on: LOX IMVI melanoma
# [7] = tested on: SR leukemia
# [8] = tested on: ACHN renal
# [9] = tested on: K-562 leukemia
# [10] = tested on: SK-MEL-5 melanoma
# [11] = tested on: OVCAR-3 ovarian
# [12] = tested on: MDA-N
# [13] = tested on: PC-3 prostate
# [14] = tested on: HS 578T breast
# [15] = tested on: MDA-MB-435
# [16] = tested on: MDA-MB-231 breast
Structure (SMILES),TGI [1],TGI [2],TGI [3],TGI [4],TGI [5],TGI [6],TGI [7] [µM],TGI [8],TGI [9],TGI [10],TGI [11],GI50 [2],GI50 [5],GI50 [7],GI50 [9],TGI [12] [µM],TGI [13] [µM],TGI [14] [µM],TGI [15] [µM],TGI [16] [µM]
Cc1ccc(S(=O)(=O)c2c3[nH]c4ccccc4nc3n3c2nc2ccccc23)cc1,> 100 µM,> 100 µM,> 100 µM,> 100 µM,> 100 µM,> 100 µM,> 100,> 100 µM,> 100 µM,> 100 µM,> 100 µM,–,–,–,–,–,–,–,–,–
COc1cc(C2c3cc4c(cc3[C@@H](NCCCN(C)C)[C@H]3COC(=O)C23)OCO4)cc(OC)c1O (some centres undefined),1.58 µM and 1.29 µM,5.17 µM and 7.61 µM,1.45 µM and 1.91 µM,1.05 µM and 0.981 µM,2.09 µM and 8.62 µM,0.927 µM and 2.11 µM,–,0.369 µM and 0.496 µM,> 37.5 µM and 7.84 µM,0.825 µM and 1.15 µM,1.79 µM and 3.76 µM,0.992 µM and 2.86 µM,0.764 µM and 2.76 µM,0.354 µM and 0.0544 µM,0.831 µM and 0.413 µM,–,–,–,–,–
[C-]#[N+]C1(C(=O)OCC)CC1,> 100 µM,> 100 µM,> 100 µM,> 100 µM,> 100 µM,> 100 µM,> 100,> 100 µM,> 100 µM,> 100 µM,> 100 µM,–,–,–,–,> 100,> 100,> 100,> 100,–
COc1ccc([C@H](NC(=O)c2ccccc2)[C@@H](O)C(=O)O[C@H]2C[C@@]3(O)C(OC(=O)c4ccccc4)C4[C@](C)(C(=O)[C@H](OC(C)=O)C(=C2C)C3(C)C)[C@@H](O)C[C@H]2OC[C@@]42OC(C)=O)cc1 (some centres undefined),> 10 µM,> 10 µM,> 10 µM,0.00758 µM,> 10 µM,> 10 µM,0.694,> 10 µM,> 10 µM,> 10 µM,–,–,–,–,–,> 10,–,0.0122,–,> 10
ClCc1ccc2ccc3ccc(CCl)nc3c2n1,> 47.5 µM,–,27.9 µM,5.85 µM,4 µM,2.9 µM,–,–,> 100 µM,3.13 µM,4.81 µM,–,–,–,–,–,–,–,–,–
CO/N=C(/C(=O)OC)c1ccccc1COc1cccc(C(F)(F)F)c1,43.2 µM,55.4 µM,> 100 µM,> 100 µM,> 100 µM,> 100 µM,–,> 100 µM,> 100 µM,17.9 µM,93.7 µM,–,–,–,–,> 100,> 100,> 100,> 100,> 100
CC(C)(C)[Si](C)(C)OCC#C[C@@]1(O)CCCCC1CC(Sc1ccccc1)Sc1ccccc1 (some centres undefined),30 µM,31.8 µM,28.7 µM,–,31.3 µM,34.5 µM,57.4,27.4 µM,> 100 µM,29.2 µM,26.4 µM,–,–,–,–,37.7,26.3,–,31.4,34.7
COc1cc(/C=C2\CC3C4CC[C@H]5C[C@@H](O)CC[C@]5(C)C4CC[C@]3(C)C2=O)cc(OC)c1OC (some centres undefined),> 100 µM,> 100 µM,> 100 µM,98.2 µM,> 100 µM,32.6 µM,–,45.8 µM,> 100 µM,22 µM,–,–,–,–,–,> 100,> 100,> 100,85.8,> 100
